The record followed here is ChEMBL document CHEMBL4118070, “Synthesis, antimicrobial, antiquorum-sensing and antitumor activities of new benzimidazole analogs” (Eur J Med Chem, 2017).

The subject of one assay is Aspergillus fumigatus. The assay can be described thus: Antifungal activity against Aspergillus fumigatus 293 after 48 hrs by two-fold serial dilution method. Type of assay: functional. Conditions: Af293, 48 h.
The test system of assay [1] is Chromobacterium violaceum. Put plainly: Inhibition of quorum sensing system in Chromobacterium violaceum ATCC 12472 assessed as diameter of violacein pigment inhibition at 5 mg/ml after 48 hrs.
Assay [2] has as its system Ehrlich. Put plainly: Antitumor activity against mouse EAC allografted in Swiss mouse assessed as RBC count in blood at 0.5 mg administered 9 days (reference value: 3.69 10^6/mm3). Type of assay: functional.
The test system of the next assay is HCT-116. Put plainly: Cytotoxicity against human HCT116 cells assessed as decrease in cell viability after 48 hrs by MTT assay. Type of assay: functional, cell-based. The following applies: HCT-116, 48 h. For orientation: Formazan colour is commonly taken as a measure of viable cells.
The test system of a further assay is Staphylococcus aureus. The assay can be described thus: Antibacterial activity against Staphylococcus aureus ATCC 29213 after 24 hrs by two-fold serial dilution method. Type of assay: functional. Conditions: ATCC 29213, 24 h.
A further assay relates to Escherichia coli. The assay can be described thus: Antibacterial activity against Escherichia coli ATCC 12435 after 24 hrs by two-fold serial dilution method. Conditions: ATCC 12435, 24 h. Type of assay: functional.
The subject of the next assay is Candida albicans. The assay can be described thus: Antifungal activity against Candida albicans after 48 hrs by two-fold serial dilution method. Type of assay: functional.
Another assay has as its system HepG2. Put plainly: Cytotoxicity against human HepG2 cells assessed as decrease in cell viability after 48 hrs by MTT assay. Type of assay: functional, cell-based. The following applies: HepG2, 48 h.
Another assay concerns Bacillus cereus. Put plainly: Antibacterial activity against Bacillus cereus UW 85 after 24 hrs by two-fold serial dilution method. Type of assay: functional. Conditions: UW 85, 24 h.
Assay [3] concerns Ehrlich. The assay can be described thus: Antitumor activity against mouse EAC allografted in Swiss mouse assessed as hemoglobin count in blood at 0.5 mg administered 9 days (reference value: 8.73 g/dl). Type of assay: functional.
The subject of the next assay is MCF7. Put plainly: Cytotoxicity against human MCF7 cells assessed as decrease in cell viability after 48 hrs by MTT assay. Type of assay: functional, cell-based. The following applies: MCF7, 48 h.
Assay [4] relates to Ehrlich. The assay can be described thus: Antitumor activity against mouse EAC allografted in Swiss mouse assessed as WBC count in blood at 0.5 mg administered 9 days (reference value: 23.96 10^3/mm3). Type of assay: functional.
A short description of assay [5]: Displacement of methyl green from DNA (unknown origin) incubated in dark for 24 hrs by colorimetric method.
Assay [6] relates to Ehrlich. The assay can be described thus: Antitumor activity against mouse EAC allografted in Swiss mouse assessed as decrease in viable tumor cell count at 0.5 mg administered 9 days by trypan blue staining method. Type of assay: functional.
Assay [7] deals with Ehrlich. Put plainly: Antitumor activity against mouse EAC allografted in Swiss mouse assessed as increase in mouse life span at 0.5 mg administered 9 days relative to control. Type of assay: functional.
Assay [8] has as its system Ehrlich. The assay can be described thus: Antitumor activity against mouse EAC allografted in Swiss mouse assessed as tumor volume at 0.5 mg administered 9 days (reference value: 9.85 ml). Type of assay: functional.
Assay [9] concerns Ehrlich. The assay can be described thus: Antitumor activity against mouse EAC allografted in Swiss mouse assessed as mean mouse survival time at 0.5 mg administered 9 days (reference value: 14.5 days). Type of assay: functional.
In another assay the test system is WI-38. Put plainly: Cytotoxicity against human W138 cells assessed as decrease in cell viability after 48 hrs by MTT assay. Type of assay: cell-based. Conditions: WI-38, 48 h.

In brackets after ≈: the same amount, converted by molar mass. Activity calls are given as the source filed them.

Regarding `O=C(CSCc1nc2cc([N+](=O)[O-])ccc2[nH]1)c1ccc(Br)cc1`, the minimal inhibitory concentration (MIC) in the assay on Aspergillus fumigatus is 385 µM (≈ 156 µg/mL); against Staphylococcus aureus, 192 µM (≈ 78.1 µg/mL); in the assay on Escherichia coli, greater than 2500 µg/mL; in the assay with Candida albicans, 385 µM (≈ 156 µg/mL); against Bacillus cereus it was 769 µM (≈ 312 µg/mL). The Activity in [1] is less than 2 mm; in the assay on Ehrlich [2], 5.14 ×10⁶ /mm3; in the assay on Ehrlich [3], 12.92 g/dL; with Ehrlich [4], 7.41 ×10³ /mm3; in the assay with Ehrlich [8] it was 2.41 mL. Moreover, the IC50 in the assay on HCT-116 was determined as 1.78 µM; in the assay on HepG2 it was 2.01 µM; in the assay on MCF7 it was 1.55 µM; in [5] it was 34.6 µM; with WI-38, 31.5 µM. In addition, the result in the assay with Ehrlich [6] was Active. The increase in lifespan (ILS) in the assay with Ehrlich [7] is recorded as 212.42%. In the assay with Ehrlich [9], the MST amounted to 45.3 days.

By MIC is commonly meant the smallest concentration in the dilution series that meets the test's criterion for growth inhibition. Lower therefore signals greater potency. As usually defined, the IC50 is the concentration that inhibits the measured activity by half. The term ILS denotes the gain in survival time of treated over control animals, in per cent.
